Laboratory results published in patent publication US9669005B2, “Use of naringenin in preparing drugs for preventing and/or treatment abdominal aortic aneurysm” (priority 2013, dated 2017).

Tests used:
[1] = system: abdominal aortic aneurysms in C57BL/6J mice with CaPO4 daubed infrarenal arteries; assay: Abdominal aortic aneurysm model induced by CaPO4 daubed infrarenal aortas, naringenin or doxycycline gavage; format: in vivo; settings: CaPO4 daubed C57BL/6 mice; daily gavage 7 days; naringenin 50 mg/kg, doxycycline 100 mg/kg; average ± SD; CaPO4 + water 1.40±0.19, NaCl 0.77±0.06
Procedure: 12-week old of male C57BL/6 mice were anesthetized via intraperitoneal injection of 0.1% pentobarbital sodium (injection according to body weight, […]). Infrarenal abdominal aortas were separated, and the separated infrarenal abdominal aortas were packaged by gauze (1 cm in width×3 cm in length) soaked in 0.5 M CaCl2 solution. After 10 minutes, the gauze was removed, gauze soaked in PBS was instead used to package the blood vessel for 5 min. CaCl2+and PO4^−3 in PBS can form CaPO4 crystal, that is, corresponding to daubing CaPO4 to the blood vessel. After packaging the blood vessel with gauze soaked in NaCl for 10 minutes, gauze soaked in PBS is instead used for 5 min, serving as NaCl daubed control group.
(§1) Gavage was started at the first day after surgery, and water, naringenin (50 mg/kg) (Sigma-Aldrich, St. Louis, Mo.) or doxycycline (100 mg/kg) (Sigma-Aldrich, St. Louis, Mo.) gavage were given on mice daily. Materials were removed from the mice 7 days after gavage. Mice were weighed, and blood was drawn from inner canthus by capillary, after centrifuged for 10 minutes at 6000 rotations, the supernatant was removed and blood fat was measured (kit is purchased from BIOSINO company). Then perfusion and washing were performed on mice using PBS. Blood vessels were separated, and four blood vessels were randomly chosen for each group for photographing. The results were shown in FIG. 1, wherein, NaCl was the group of daubing NaCl (n=11), CaPO4 was the group of daubing CaPO4 plus water feed (n=12), CaPO4+NGN was the group of daubing CaPO4 μlus naringenin gavage (n=11), and CaPO4+Dox was the group of daubing CaPO4 μlus doxycycline gavage (n=11).
The blood vessels were sliced, and the change of the diameters in infrarenal abdominal aortas of mice were identified by H.E. staining. […] The data in FIG. 2A were an average value±standard deviation.
The fracture degree of elastic lamina is also an index showing the severity of abdominal aortic aneurysms. The degradation of elastic lamina is divided into four grades. The first grade means that the degradation of elastic lamina is less than 25%, with the second grade of 25%-50%, the third grade of 50%-75%, and the fourth grade means the fracture is more than 75%. We used Gomori staining to identify the fracture situation of elastic lamina of infrarenal abdominal aortas of mice. […] The data in FIG. 2B were an average value±standard deviation.

[2] = Body weight and blood fat of CaPO4 treated C57BL/6J mice; format: in vivo; settings: CaPO4 treated C57BL/6J mice; gavage 7 days; naringenin 50 mg/kg, doxycycline 100 mg/kg
Procedure: as §1

With C[C@H]1c2cccc(O)c2C(=O)C2=C(O)[C@]3(O)C(=O)C(C(N)=O)=C(O)[C@@H](N(C)C)[C@@H]3[C@@H](O)[C@@H]21 [doxycycline, reference compound] the “diameters of infrarenal abdominal aortas (H.E. staining)” value [1] was 0.99±0.18 mm, the Body weight [2] was 21.0 ± 1.89 g and the Cholesterol [2] was 3.49 ± 0.64 mmol. The Triglyceride [2] was 1.07 ± 0.32 mmol.
